According to patent publication US20080287396A1, “Phosphonated Fluoroquinolones, Antibacterial Analogs Thereof, and Methods for the Prevention and Treatment of Bone and Joint Infections” (TARGANTA THERAPEUTICA INC., priority 2005, published 2008):
Values after ≈ are worked out from the molar mass of the structure shown.

Assays:
Hela cells = assay: Cytotoxicity assay (MTS reduction); format: cell-based; settings: concentrations up to 100 μM, 18 h, MTS reagent; data not shown
Protocol: Selected compounds were also tested for their ability to inhibit growth of mammalian cells so as to ascertain levels of cytotoxicity to the mammalian host, via an assay measuring the biological reduction of the inner salt of (3-(4,5-dimethylthiazol-2-yl)-5-(3-carboxymethoxyphenyl)-2-(4-sulfophenyl)-2H-tetrazolium (MTS reagent). Assays were performed in 96-well microtiter plates. Briefly, compounds at 100, 50, 25, and 12.5 μM concentrations were incubated with 2×10^4 Hela cells per well in Dulbecco's Modified Eagle Medium (Invitrogen Corporation) containing 1% Bovine Growth Serum (HyClone) for 18 h at 37° C. under 5% CO2.

[1] = Bone powder binding, LC/MS detection; settings: 100 μM compound, Tris-HCl pH 7, 0.15M NaCl, ground rat tibia bone, 10 min
Protocol: The ability of the example molecules to bind to bone powder was established in two parallel fashions, using either LC/MS or fluorometric detection. For LC/MS detection, a stock solution (5 mM) of the compound to be tested was added to 0.1M Tris-HCl buffer pH 7, 0.15M NaCl to reach a final concentration of 100 μM. Triplicate samples (1 mL) of the compound solutions were intensively shaken for 10 min with or without 25 mg of fresh or 20 mg of vacuum dried ground rat tibia bone. The samples were then centrifuged for 15 min at 10 000 g. The presence of unbound compound was measured by injection of 30 μL of each of the supernatants into an Agilent 1100™ LC/UV system. For fluorometric detection, an individual compound was dissolved in PBS or water (compound 52) and resuspended at a concentration of 1 mg/ml in a slurry of bone meal powder (Now Foods, Bloomingdale, Ill., USA) in PBS at 10 mg/ml. The suspension of drug/prodrug in bone meal powder was incubated at 37° C. for 1 h to allow for binding, and centrifuged at 13 000 rpm for 2 min, before recovering the supernatant. The bone meal powder pellet was then washed three times with 1 ml of PBS. All supernatants were saved and assessed for fluoroquinolone content by fluorescence measurements at excitation/emission wavelengths of 280/465 nm. The amount of fluoroquinolone was determined from standard curves generated for each experiment. Amount of drug/prodrug bound to bone powder was deduced from the difference between the input amount (typically 1 mg) and the amount recovered in the supernatants after binding. In all binding experiments, >99% of input drug was recovered in the supernatant for the parent drugs.

[2] = tested on: S. aureus strains ATCC13709 and RN4220; assay: Susceptibility testing (MIC) in the presence of serum; format: cell-based; settings: Staphylococcus aureus
Protocol: (§1) Susceptibility of S. aureus strains ATCC13709 and RN4220 to the commercial antibiotics and synthesized compounds was determined by following the guidelines set by the Clinical and Laboratory Standards Institute (formerly the National Committee for Clinical Laboratory Standards) (M26-A). Compounds were diluted two-fold serially in DMSO and transferred to cation-adjusted Mueller Hinton broth (CAMHB; Becton Dickinson). 50 μL of compounds diluted in CAMHB was mixed with 100 μL of bacteria diluted in CAMHB in 96-well microtiter plates. The final number of micro-organisms in the assay was 5×10^5 c.f.u. per mL and the final concentration of DMSO in the assay was 1.25%. Assays were set up in duplicate and incubated at 37° C. for 18 h. The concentration of compound that inhibited visible growth was reported as the minimum inhibitory concentration (MIC).
Susceptibility testing experiments were also carried out in the presence of serum. These experiments were carried out similar to the susceptibility testing with the following modifications. 75 μL of compounds diluted in CAMHB was mixed with 75 μL of bacteria diluted in 100% serum from any given source (commercial pooled mouse serum (MS) and human serum (HS), Equitech-Bio Inc.) or diluted in 8% purified human serum albumin (HSA) (Calbiochem). […]

[3] = Regeneration of drug from bone powder-bound prodrug; format: in vitro ADME; settings: 7 days, medium not stated
Protocol: Amounts of drug “regenerated” from the phosphonated parent prodrug were measured as follows. Washed bone powder-bound prodrugs from the above section were resuspended in 400 μL PBS or in 400 μL 50% (v/v in PBS) human or rat serum. […] Methanol (5× volume relative to supernatant) was added to each supernatant and the mixture was vortexed on a floor model vortex for 15 min to extract freed fluoroquinolone. The mixture was then centrifuged at 10 000 rpm for 15 min to pellet the insoluble material. The supernatant containing the extracted fluoroquinolone was recovered and evaporated to dryness in a speed vac. The dried pellets were resuspended in PBS and the amount of fluoroquinolone was determined by fluorescence measurements as described above. The percentage of drug regenerated was deduced from the difference between amount of bound prodrug and the amount of regenerated drug. The identity of regenerated drug was deduced by MIC determination; MICs of regenerated material matched those of parent drugs but not those of prodrugs.

[4] = Bone powder binding, fluorometric detection; settings: 1 mg/ml compound, bone meal powder 10 mg/ml in PBS, 37° C., 1 h
Method in brief: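 LC/MS method: 100 μM compound in 0.1 M Tris-HCl pH 7, 0.15 M NaCl shaken 10 min with or without ground rat tibia, centrifuged, unbound compound measured in supernatant. Fluorometric method: 1 mg/ml compound in 10 mg/ml bone meal/PBS, 1 h at 37 °C, pellet washed. Supernatant fluoroquinolone read at 280/465 nm; bound amount taken as input minus recovered.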

[5] = tested on: S. aureus strains ATCC13709 and RN4220; assay: microbe, parasite or virus in culture; format: cell-based; settings: Staphylococcus aureus, read-out: minimum inhibitory concentration (MIC)
Protocol: as §1

Row | Structure (SMILES) | cytotoxicity (Hela cells) | Binding to bone (%) LC/MS [1] [%] | MIC ([2]; ATCC13709, in serum (kind not stated), read-out: MIC in serum) [µg/mL] | drug released from the bone matter after 7 days of incubation, in words [3] | Binding to bone (%) Fluorescence [4] [%] | MIC ([5]; ATCC13709, CAMHB, 37° C., 18 h, data not shown) [µg/mL] | MIC ([2]; ATCC13709, read-out: MIC in the presence of 50% mouse serum in the medium) [µg/mL] | MIC ([5]; ATCC13709, 18 h) [µg/mL]
1 | COc1c(N2CCNC(C)C2)c(F)cc2c(=O)c(C(=O)OCCCC(P(=O)(O)O)P(=O)(O)O)cn(C3CC3)c12 (stereo not drawn) [Compound 18, 4,4-bisphosphonobutyl 7-(3-methylpiperazin-1-yl)-1-cyclopropyl-6-fluoro-1,4-dihydro-8-methoxy-4-oxoquinoline-3-carboxylate] | no signs of any cytotoxicity | 96.0 ± 2.4 | – | – | – | – | – | –
2 | COc1c(N2C[C@@H]3CCCN[C@@H]3C2)c(F)cc2c(=O)c(C(=O)OCCCCC(P(=O)(O)O)P(=O)(O)O)cn(C3CC3)c12 [Compound 25, 5,5-bisphosphonopentyl 7-((4aS,7aS)-octahydropyrrolo[3,4-b]pyridin-6-yl)-1-cyclopropyl-6-fluoro-1,4-dihydro-8-methoxy-4-oxoquinoline-3-carboxylate] | – | 87.6 ± 11.5 | 32 | signs of drug release | 92.7 | 32 (≈ 50.7 µM) | – | –
3 | CCOP(=O)(OCC)C(CCCCOC(=O)c1cn(C2CC2)c2c(OC)c(N3C[C@@H]4CCCN[C@@H]4C3)c(F)cc2c1=O)P(=O)(OCC)OCC.O=C(O)C(F)(F)F [Compound 26, 5,5-bis(diethylphosphono)pentyl 7-((4aS,7aS)-octahydropyrrolo[3,4-b]pyridin-6-yl)-1-cyclopropyl-6-fluoro-1,4-dihydro-8-methoxy-4-oxoquinoline-3-carboxylate, trifluoroacetate salt] | no signs of any cytotoxicity | – | – | – | – | – | 0.5 | 32
4 | COc1c(N2CCNC(C)C2)c(F)cc2c(=O)c(C(=O)OCCCCC(P(=O)(O)O)P(=O)(O)O)cn(C3CC3)c12 (stereo not drawn) [Compound 28, 5,5-bisphosphonopentyl 7-(3-methylpiperazin-1-yl)-1-cyclopropyl-6-fluoro-1,4-dihydro-8-methoxy-4-oxoquinoline-3-carboxylate] | no signs of any cytotoxicity | 91.9 ± 5.5 | – | – | – | – | – | –
